Test results taken from patent US7816075B2, “Methods and compositions using stearoyl-CoA desaturase to identify triglyceride reducing therapeutic agents” (Xenon Pharmaceuticals Inc., priority 2000, dated 2010).
Values belong to the molecule of their own block, whether it stands above or below them.

Assays:
SCD = target: T1, SCD (Homo sapiens, UniProt O00767); conditions: known from the literature; cited from earlier work
T1 sequence (O00767 1-359): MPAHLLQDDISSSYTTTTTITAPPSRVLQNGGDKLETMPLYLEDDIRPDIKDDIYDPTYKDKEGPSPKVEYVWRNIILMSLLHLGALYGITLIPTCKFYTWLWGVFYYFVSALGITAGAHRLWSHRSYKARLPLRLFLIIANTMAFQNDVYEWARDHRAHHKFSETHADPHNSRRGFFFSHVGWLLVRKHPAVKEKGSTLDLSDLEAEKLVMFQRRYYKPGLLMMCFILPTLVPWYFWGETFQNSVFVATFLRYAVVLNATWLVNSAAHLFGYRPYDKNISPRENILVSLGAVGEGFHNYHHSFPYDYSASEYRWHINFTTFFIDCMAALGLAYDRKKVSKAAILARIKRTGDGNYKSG

human SCD promoter = assay: Human SCD promoter-luciferase reporter (pSCD-500) in transfected HepG2 cells; assay type: cell-based; conditions: for SCD promoter activity: HepG2 cells co-transfected with mature SREBP-1a, in the presence of cholesterol, fatty acids as albumin complexes (data not shown)
Method: The decrease in promoter activity in the reporter construct correlated with decreases in endogenous SCD mRNA and protein levels. […] Our studies indicate that like the mouse SCD1 gene, the human SCD gene is regulated by polyunsaturated fatty acids and cholesterol at the level of gene transcription and that SREBP plays a role in the transcriptional activation of this gene. Cell Culture and DNA transfections—HepG2 cells, were grown in Low Glucose DMEM supplemented with 10% Fetal Bovine Serum and 1% Penicillin/Streptomycin solution and maintained at 37 C, 5% CO2 in a humidified incubator. Cells were passaged into 6 cm dishes to give 40-70% confluence in about 12-16 hours. Cells were then transfected with 5 μg plasmid DNA per plate of pSCD-500 or the Basic PGL3 reporter as well as well as the pRL-TK, internal controls (Promega) using the LT-1 transfection reagent (Pan Vera). After 48 hours, cells were rinsed with PBS and then treated in Williams' E Media, a fatty acid-free media, containing insulin, dexamethasone, and appropriate concentrations of albumin-conjugated fatty acids as indicated in figures and legends. Cells were also treated with ethanol alone (as control) or cholesterol (10 μg/mL) and 25-OH cholesterol (1 μg/mL) dissolved in ethanol. After an additional 24 h, extracts were prepared and assayed for luciferase activity. Non-transfected cells were used as the blank and Renilla Luciferase was used as an internal control. Cell extracts were assayed for protein according to Lowry, and all results were normalized to protein concentration as well as to renilla luciferase counts. Each experiment was repeated at least three times, and all data are expressed as means±SEM. […] To observe the regulatory effects of mature SREBP-1a and PUFAs on the activity of SCD promoters, HepG2 hepatic cells were transiently co-transfected with 20 ng (per 6-cm dish) of plasmid DNA containing the human SCD promoter as described above but this time the transfections were carried out in the presence of cholesterol to inhibit the maturation of the endogenous SREBP and thus ensure that there was little mature form of the endogenous SREBP present in the cells. After transfection, the cells were then treated with, arachidonic acid, EPA and DHA as albumin complexes and luciferase activity was then assayed using a luminometer. If SREBP mediates PUFA repression of the human SCD gene, SCD promoter activity would not diminish upon treatment the transfected cells with PUFA.

[1] = tested on: human SCD mRNA expression; assay: Northern blot of SCD mRNA in treated HepG2 cells; assay type: cell-based; conditions: range of doses, cholesterol 10 μg/ml with 1 μg/ml 25-hydroxycholesterol, FIG. 15
Method: FIG. 15. Human HepG2 cells cultured and treated with a range of doses of arachidonic acid, DHA or 10 μg/ml cholesterol or EPA as indicated. Total mRNA was isolated and quantified. Isolation and Analysis of RNA-Total RNA was isolated from HepG2 cells using the acid guanidinium-phenol-chloroform extraction method. Twenty micrograms of total RNA was separated by 0.8% agarose/2.2 M formaldehyde gel electrophoresis and transferred onto nylon membrane. The membrane was hybridized with ^32P-labeled human SCD cDNA probe generated by PCR as follows: pAL15 probe was used as control for equal loading. We tested whether the human SCD gene expression was also repressed by cholesterol and polyunsaturated fatty acids. Human HepG2 cells were cultured and then treated with 100 μM arachidonic acid, DHA or 10 μg/ml cholesterol and 1 μg/ml of 25-hydroxycholesterol cholesterol as we have described previously. Total mRNA was isolated and subjected to northern blot analysis using a probe corresponding to the human cDNA and generated by the PCR method using primers based on published human SCD cDNA sequence.

SCD protein = assay: Western blot of SCD protein in treated HepG2 cells; assay type: cell-based, human; conditions: western blot of protein extracts (data not shown)
Method: Immunoblotting—Cell extracts were prepared from HepG2 cells that had been treated with the various fatty acids or cholesterol as described by Heinemann et al (17). The same amount of protein (60 μg) from each fraction was subjected to 10% SDS-polyacrylamide gel electrophoresis and transferred to Immobilon-P transfer membranes at 4° C. After blocking with 10% non-fat milk in TBS buffer (pH 8.0) plus 0.5% Tween at 4° C. overnight, the membrane was washed and incubated with rabbit anti-rat SCD as primary antibody (17) and goat anti-rabbit IgG-HRP conjugate as the secondary antibody. Visualization of the SCD protein was performed with ECL western blot detection kit. We tested whether the human SCD gene expression was also repressed by cholesterol and polyunsaturated fatty acids. Human HepG2 cells were cultured and then treated with 100 μM arachidonic acid, DHA or 10 μg/ml cholesterol and 1 μg/ml of 25-hydroxycholesterol cholesterol as we have described previously. Total mRNA was isolated and subjected to northern blot analysis using a probe corresponding to the human cDNA and generated by the PCR method using primers based on published human SCD cDNA sequence.

SCD1 mRNA = conditions: known from the literature; cited from earlier work
SCD1 = target: T2, SCD1 (Mus musculus, UniProt P13516); assay: SCD1 desaturase activity assay, transfer of 3H from 3H-stearoyl CoA to water in liver microsomes; assay type: biochemical; conditions: for inhibition of SCD1: pre-conjugated to CoA (microsomes incubated with CoA and ATP before 3H-stearoyl CoA)
T2 construct: from tissue; host or cells: mouse liver microsomes (wild type, after a high carbohydrate fat-free diet)
T2 sequence (P13516 1-355): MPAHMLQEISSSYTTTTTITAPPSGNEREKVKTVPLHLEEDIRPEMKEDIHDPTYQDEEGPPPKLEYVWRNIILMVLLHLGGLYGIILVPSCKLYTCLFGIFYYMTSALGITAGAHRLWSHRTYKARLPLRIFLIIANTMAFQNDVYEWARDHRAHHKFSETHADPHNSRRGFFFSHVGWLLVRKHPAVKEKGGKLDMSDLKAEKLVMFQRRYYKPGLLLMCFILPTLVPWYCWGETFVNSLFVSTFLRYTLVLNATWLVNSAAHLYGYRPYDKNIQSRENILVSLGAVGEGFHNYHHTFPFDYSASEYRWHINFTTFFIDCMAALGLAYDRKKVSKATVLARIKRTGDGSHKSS
Method: Microsomes from wild type livers were used for this experiment. A turnover number for SCD1 activity under these conditions was estimated at 2 nmol/min/mg protein, which is about half that observed at 37° C.
Livers were collected from wild type and SCD1 knockout mice following 3 days on a high carbohydrate fat-free diet (this induces SCD1 expression in liver by about 50-fold), homogenized and a portion used for microsome purification. ^3H-water production was determined for 15 minutes at RT (room temperature) in both homogenate and microsome preparations at equivalent protein concentration, followed by quenching the reaction with acid and using charcoal to separate substrate from product. Quenching the sample with acid prior to the addition of substrate offers a blank, or control containing background radioactivity without any desaturation reaction. […] The “window”, or SCD1-dependent desaturation in this assay, is a highly visible and significant 160-fold difference between wild type and SCD1 knockout microsomes.
Microsomes from wild type mice were used to test the effectiveness of three known inhibitors of SCD1: conjugated linoleic acid (CLA), 9-thia stearic acid (9-thia) and sterculic acid (SA). […] This experiment establishes that SCD1 activity can be inhibited with known inhibitors but they appear to require conjugation with CoA. An important use of this screening assay is to find small molecules that are potent inhibitors of SCD1 biological activity without conjugation to CoA.
In a preferred embodiment, the assay makes use of ^3H-stearoyl CoA (with the ^3H on the 9 and 10 carbon atoms), the substrate for SCD1. Desaturation by SCD1, produces oleoyl CoA and 3H-water molecules. The reaction is run at room temperature, quenched with acid and then activated charcoal is used to separate unreacted substrate from the radioactive water product. The charcoal is sedimented and amount of radioactivity in the supernatant is determined by liquid scintillation counting. This assay is specific for SCD1-dependent desaturation as judged by the difference seen when comparing the activity in wild type and SCD1-knockout tissues. Further, the method is easily adapted to high throughput as it is cell-free, conducted at room temperature and is relatively brief (1 hour reaction time period versus previous period of 2 days). This procedure is illustrated more fully in FIGS. 17 to 20.

[2] = added as the free fatty acid, microsomes from wild type mice (FIG. 19 panel A)

Molecule: CCCCCC/C=C/C=C\CCCCCCCC(=O)O [Cis-9, trans-11 conjugated linoleic acid]
inhibition of SCD enzyme activity (SCD): does not

Molecule: CC/C=C\C/C=C\C/C=C\C/C=C\C/C=C\CCCC(=O)O [EPA]
SCD promoter activity (human SCD promoter): continued to repress SCD promoter activity with only a slight attenuation

Molecule: CCCCC/C=C\C/C=C\C/C=C\C/C=C\CCCC(=O)O [AA, arachidonic acid]
SCD promoter activity (human SCD promoter): continued to repress SCD promoter activity with only a slight attenuation
human SCD mRNA expression [1]: decreased the human SCD mRNA expression in a dose dependent manner

Molecule: CC(C)CCC[C@@H](C)[C@H]1CC[C@H]2[C@@H]3CC=C4C[C@@H](O)CC[C@]4(C)[C@H]3CC[C@]12C [cholesterol]
SCD promoter-luciferase activity (human SCD promoter; transiently transfected HepG2 cells): decreased the SCD promoter-luciferase activity
human SCD mRNA expression [1]: decreased the human SCD mRNA expression in a dose dependent manner
levels of the SCD protein (SCD protein): decreased the levels of the SCD protein

Molecule: CCCCC/C=C\C=C\CCCCCCCCC(=O)O [Cis-12, trans-10 conjugated linoleic acid]
inhibition of SCD enzyme activity (SCD): effectively inhibit SCD enzyme activity
abundance of SCD1 mRNA (SCD1 mRNA): reduce the abundance of SCD1 mRNA

suppression of SCD1 activity (SCD1; [2]): none were effective
inhibition of SCD1 (SCD1; FIG. 19 panel B): graded inhibition
Molecule: conjugated linoleic acid

suppression of SCD1 activity (SCD1; [2]): none were effective
inhibition of SCD1 (SCD1; FIG. 19 panel B): graded inhibition
suppression of SCD1 activity (SCD1; pre-conjugated to CoA, preincubation condition, FIG. 19 panel B): ~100%
Molecule: CCCCCCCCC1=C(CCCCCCCC(=O)O)C1 [sterculic acid, 8-(2-octyl-cyclopropenyl)octanoic acid]

Molecule: CC/C=C\C/C=C\C/C=C\C/C=C\C/C=C\C/C=C\CCC(=O)O [DHA]
SCD promoter activity (human SCD promoter): continued to repress SCD promoter activity with only a slight attenuation
human SCD mRNA expression [1]: decreased the human SCD mRNA expression in a dose dependent manner
